Test results taken from patent US5968910A, “Compositions containing two or three inhibitors of different HIV reverse transcriptases” (priority 1994, dated 1999).
Converted amounts (≈) assume the structure as drawn.

Experiments:
Format in all cases: cell-based
HIV-1(IIIB) (WT) = test: microbe, parasite or virus in culture
Description: (§1) CEM cells were suspended at 250,000 cells per ml of culture medium and infected with wild-type HIV-I(IIIB) or mutant HIV-1 strains at 100 50% cell culture infective doses per ml. Then 100 μl of the infected cell suspensions was added to 200-μl microtiter plate wells containing 100 μl of an appropriate dilution of the test compounds. After 4 days incubation at 37° C., the cell cultures were examined for syncytium formation.

HIV-1/B 101Glu = test: Sensitivity of mutant HIV-1 strain in CEM cell cultures; settings: Table 5
Description: as §1

HIV-1/I(0.1) 103-Asn = test: as above; settings: Table 5
Description: as §1

HIV-1/II(0.1) 100-Ile = test: as above; settings: Table 5
Description: as §1

HIV-1/III(0.1) 103-Asn = test: as above; settings: Table 5
Description: as §1

HIV-1/IV(0.1) 103-Thr = test: as above; settings: Table 5
Description: as §1

[1] = tested on: HIV-1/V(0.1) 101-Ile + 141-Glu; test: as above; settings: Table 5
Description: as §1

HIV-1/V(0.5) 103-Asn = test: as above; settings: Table 5
Description: as §1

HIV-1 = test: Breakthrough of mutant HIV-1 strains in CEM cell cultures, single drugs and double/triple combinations
Description: The culture medium consisted of RPMI 1640 containing 10% fetal bovine serum, 2 mM L-glutamine, and 0.075% NaHCO3. The multiplicity of the initial infection was ~1000 times the CCID50 (50% cell culture infective dose). Passages were performed every 3 to 4 days by adding 0.5 to 1.0 ml of the infected culture supernatant to 5 ml of a suspension containing 4×10^5 uninfected CEM cells per ml. Syncytium formation was used as a parameter of virus breakthrough in the cell cultures. In the drug combination experiments, the compounds were combined at the same initial concentrations as used for the two lowest concentrations in the single-drug experiments.
Compound IV, BHAP and TSAO-m^3 T were added to HIV-1-infected CEM cell cultures at 0.04, 0.10 and 0.25 ug/ml (Compound IV and BHAP) or 1.0, 2.5 and 5.0 μg/ml (TSAO-m^3 T). In addition, various double- and triple-drug combinations of Compound IV, BHAP and TSAO-m^3 T were performed, combining these inhibitors at their lowest (0.04 μg/ml) or intermediary (0.1 μg/ml) concentration as used in the single-drug experiments.

CC(C)Nc1cccnc1N1CCN(C(=O)c2cc3cc(NS(C)(=O)=O)ccc3[nH]2)CC1 [BHAP U90152]
EC50 (HIV-1(IIIB) (WT)): 0.010 µg/mL (≈ 0.0219 µM)
EC50 (HIV-1/B 101Glu): 1.0 µg/mL (≈ 2.19 µM)
EC50 (HIV-1/I(0.1) 103-Asn): 0.25 µg/mL (≈ 0.548 µM)
EC50 (HIV-1/II(0.1) 100-Ile): 0.67 µg/mL (≈ 1.47 µM)
EC50 (HIV-1/III(0.1) 103-Asn): 0.05 µg/mL (≈ 0.11 µM)
EC50 (HIV-1/IV(0.1) 103-Thr): 0.47 µg/mL (≈ 1.03 µM)
EC50 [1]: 0.10 µg/mL (≈ 0.219 µM)
EC50 (HIV-1/V(0.5) 103-Asn): 0.50 µg/mL (≈ 1.1 µM)
HIV-1-induced syncytium formation in CEM cells (HIV-1; single drug 0.04 μg/ml, day 4 post infection): 0 percentage of control
HIV-1-induced syncytium formation in CEM cells (HIV-1; single drug 0.04 μg/ml, day 7 post infection): 12.5 percentage of control
HIV-1-induced syncytium formation in CEM cells (HIV-1; single drug 0.04 μg/ml, day 11 post infection): 75 percentage of control
HIV-1-induced syncytium formation in CEM cells (HIV-1; single drug 0.04 μg/ml, day 14 post infection): 100 percentage of control
HIV-1-induced syncytium formation in CEM cells (HIV-1; single drug 0.04 μg/ml, day 18 post infection): 100 percentage of control
HIV-1-induced syncytium formation in CEM cells (HIV-1; single drug 0.04 μg/ml, day 21 post infection): 100 percentage of control
HIV-1-induced syncytium formation in CEM cells (HIV-1; single drug 0.04 μg/ml, day 25 post infection): 100 percentage of control
HIV-1-induced syncytium formation in CEM cells (HIV-1; single drug 0.04 μg/ml, day 28 post infection): 100 percentage of control
HIV-1-induced syncytium formation in CEM cells (HIV-1; single drug 0.04 μg/ml, day 32 post infection): 100 percentage of control
HIV-1-induced syncytium formation in CEM cells (HIV-1; single drug 0.04 μg/ml, day 35 post infection): 100 percentage of control
HIV-1-induced syncytium formation in CEM cells (HIV-1; single drug 0.04 μg/ml, day 39 post infection): 100 percentage of control
HIV-1-induced syncytium formation in CEM cells (HIV-1; single drug 0.04 μg/ml, day 42 post infection): 100 percentage of control
HIV-1-induced syncytium formation in CEM cells (HIV-1; single drug 0.04 μg/ml, day 46 post infection): 100 percentage of control
HIV-1-induced syncytium formation in CEM cells (HIV-1; single drug 0.04 μg/ml, day 49 post infection): 100 percentage of control
HIV-1-induced syncytium formation in CEM cells (HIV-1; single drug 0.04 μg/ml, day 53 post infection): 100 percentage of control
HIV-1-induced syncytium formation in CEM cells (HIV-1; single drug 0.04 μg/ml, day 56 post infection): 100 percentage of control
HIV-1-induced syncytium formation in CEM cells (HIV-1; single drug 0.04 μg/ml, day 60 post infection): 100 percentage of control
HIV-1-induced syncytium formation in CEM cells (HIV-1; single drug 0.04 μg/ml, day 64 post infection): 100 percentage of control
HIV-1-induced syncytium formation in CEM cells (HIV-1; single drug 0.04 μg/ml, day 67 post infection): 100 percentage of control
HIV-1-induced syncytium formation in CEM cells (HIV-1; single drug 0.04 μg/ml, day 71 post infection): 100 percentage of control
HIV-1-induced syncytium formation in CEM cells (HIV-1; single drug 0.04 μg/ml, day 74 post infection): 100 percentage of control
HIV-1-induced syncytium formation in CEM cells (HIV-1; single drug 0.04 μg/ml, day 77 post infection): 100 percentage of control
HIV-1-induced syncytium formation in CEM cells (HIV-1; single drug 0.10 μg/ml, day 4 post infection): 0 percentage of control
HIV-1-induced syncytium formation in CEM cells (HIV-1; single drug 0.10 μg/ml, day 7 post infection): 0 percentage of control
HIV-1-induced syncytium formation in CEM cells (HIV-1; single drug 0.10 μg/ml, day 11 post infection): 0 percentage of control
HIV-1-induced syncytium formation in CEM cells (HIV-1; single drug 0.10 μg/ml, day 14 post infection): 12.5 percentage of control
HIV-1-induced syncytium formation in CEM cells (HIV-1; single drug 0.10 μg/ml, day 18 post infection): 75 percentage of control
HIV-1-induced syncytium formation in CEM cells (HIV-1; single drug 0.10 μg/ml, day 21 post infection): 100 percentage of control
HIV-1-induced syncytium formation in CEM cells (HIV-1; single drug 0.10 μg/ml, day 25 post infection): 100 percentage of control
HIV-1-induced syncytium formation in CEM cells (HIV-1; single drug 0.10 μg/ml, day 28 post infection): 100 percentage of control
HIV-1-induced syncytium formation in CEM cells (HIV-1; single drug 0.10 μg/ml, day 32 post infection): 100 percentage of control
HIV-1-induced syncytium formation in CEM cells (HIV-1; single drug 0.10 μg/ml, day 35 post infection): 100 percentage of control
HIV-1-induced syncytium formation in CEM cells (HIV-1; single drug 0.10 μg/ml, day 39 post infection): 100 percentage of control
HIV-1-induced syncytium formation in CEM cells (HIV-1; single drug 0.10 μg/ml, day 42 post infection): 100 percentage of control
HIV-1-induced syncytium formation in CEM cells (HIV-1; single drug 0.10 μg/ml, day 46 post infection): 100 percentage of control
HIV-1-induced syncytium formation in CEM cells (HIV-1; single drug 0.10 μg/ml, day 49 post infection): 100 percentage of control
HIV-1-induced syncytium formation in CEM cells (HIV-1; single drug 0.10 μg/ml, day 53 post infection): 100 percentage of control
HIV-1-induced syncytium formation in CEM cells (HIV-1; single drug 0.10 μg/ml, day 56 post infection): 100 percentage of control
HIV-1-induced syncytium formation in CEM cells (HIV-1; single drug 0.10 μg/ml, day 60 post infection): 100 percentage of control
HIV-1-induced syncytium formation in CEM cells (HIV-1; single drug 0.10 μg/ml, day 64 post infection): 100 percentage of control
HIV-1-induced syncytium formation in CEM cells (HIV-1; single drug 0.10 μg/ml, day 67 post infection): 100 percentage of control
HIV-1-induced syncytium formation in CEM cells (HIV-1; single drug 0.10 μg/ml, day 71 post infection): 100 percentage of control
HIV-1-induced syncytium formation in CEM cells (HIV-1; single drug 0.10 μg/ml, day 74 post infection): 100 percentage of control
HIV-1-induced syncytium formation in CEM cells (HIV-1; single drug 0.10 μg/ml, day 77 post infection): 100 percentage of control
HIV-1-induced syncytium formation in CEM cells (HIV-1; single drug 0.25 μg/ml, day 4 post infection): 0 percentage of control
HIV-1-induced syncytium formation in CEM cells (HIV-1; single drug 0.25 μg/ml, day 7 post infection): 0 percentage of control
HIV-1-induced syncytium formation in CEM cells (HIV-1; single drug 0.25 μg/ml, day 11 post infection): 0 percentage of control
HIV-1-induced syncytium formation in CEM cells (HIV-1; single drug 0.25 μg/ml, day 14 post infection): 6.25 percentage of control
HIV-1-induced syncytium formation in CEM cells (HIV-1; single drug 0.25 μg/ml, day 18 post infection): 50 percentage of control
HIV-1-induced syncytium formation in CEM cells (HIV-1; single drug 0.25 μg/ml, day 21 post infection): 100 percentage of control
HIV-1-induced syncytium formation in CEM cells (HIV-1; single drug 0.25 μg/ml, day 25 post infection): 100 percentage of control
HIV-1-induced syncytium formation in CEM cells (HIV-1; single drug 0.25 μg/ml, day 28 post infection): 100 percentage of control
HIV-1-induced syncytium formation in CEM cells (HIV-1; single drug 0.25 μg/ml, day 32 post infection): 100 percentage of control
HIV-1-induced syncytium formation in CEM cells (HIV-1; single drug 0.25 μg/ml, day 35 post infection): 100 percentage of control
HIV-1-induced syncytium formation in CEM cells (HIV-1; single drug 0.25 μg/ml, day 39 post infection): 100 percentage of control
HIV-1-induced syncytium formation in CEM cells (HIV-1; single drug 0.25 μg/ml, day 42 post infection): 100 percentage of control
HIV-1-induced syncytium formation in CEM cells (HIV-1; single drug 0.25 μg/ml, day 46 post infection): 100 percentage of control
HIV-1-induced syncytium formation in CEM cells (HIV-1; single drug 0.25 μg/ml, day 49 post infection): 100 percentage of control
HIV-1-induced syncytium formation in CEM cells (HIV-1; single drug 0.25 μg/ml, day 53 post infection): 100 percentage of control
HIV-1-induced syncytium formation in CEM cells (HIV-1; single drug 0.25 μg/ml, day 56 post infection): 100 percentage of control
HIV-1-induced syncytium formation in CEM cells (HIV-1; single drug 0.25 μg/ml, day 60 post infection): 100 percentage of control
HIV-1-induced syncytium formation in CEM cells (HIV-1; single drug 0.25 μg/ml, day 64 post infection): 100 percentage of control
HIV-1-induced syncytium formation in CEM cells (HIV-1; single drug 0.25 μg/ml, day 67 post infection): 100 percentage of control
HIV-1-induced syncytium formation in CEM cells (HIV-1; single drug 0.25 μg/ml, day 71 post infection): 100 percentage of control
HIV-1-induced syncytium formation in CEM cells (HIV-1; single drug 0.25 μg/ml, day 74 post infection): 100 percentage of control
HIV-1-induced syncytium formation in CEM cells (HIV-1; single drug 0.25 μg/ml, day 77 post infection): 100 percentage of control
virus breakthrough delayed till day (HIV-1; single drug, higher concentrations): 14 days
